Laboratory results as given in paper PMC12113347, “Compound 3d Attenuates Metabolic Dysfunction-Associated Steatohepatitis via Peroxisome Proliferator-Activated Receptor Pathway Activation and Inhibition of Inflammatory and Apoptotic Signaling” (Metabolites, 2025).
Read-outs that look alike come from different tables or passages of the source.

Tests used:
[1] = tested on: PPAR signaling pathway and p38 MAPK pathway proteins; test: Proteomics and Western blotting of liver tissue of HFD mice (PPAR pathway, p38 MAPK and apoptosis proteins); type: in vivo
Experimental: Proteome sequencing of liver tissue samples was performed according to the specific requirements of the protocol by Beijing Qinglian Baiao Biotechnology Co., Ltd. (Beijing, China). Mouse fecal samples were collected and frozen in liquid nitrogen and stored at −80 °C.
(§1) Proteins were extracted using RIPA lysate and a BCA kit for protein concentration, separated by SDS-PAGE gel electrophoresis, and transferred to PVDF membranes. The membranes were sealed with 5% skimmed milk and incubated at 4 °C overnight with primary antibodies, followed by co-incubation with the corresponding secondary antibodies. The protein bands were imaged using an infrared laser imager and quantitatively analyzed by ImageJ software. The antibodies used for Western blot were Acox1 (Abcam, ab184032), Acaa1 (Abcam, ab154091), EHHADH (Abcam, ab123490), PPARγ (Abcam, ab272718), PPARα (Abcam, ab314112), PPARδ (Abcam, ab178866), P38 (Abcam, ab31828), p-P38 (Abcam, ab195049), Bcl-2 (Abcam, ab182858), Caspase8 (Abcam, ab25901), anti-rabbit IgG (CST, 7074 S), and α-tubulin (Abcam, ab7291).

[2] = Pharmacokinetics of 3d in male SD rats, gavage; type: in vivo; conditions: for MRT last: read-out: MRT(0-t) (converted)
Experimental: The pharmacokinetics of 3d in vivo were evaluated using male SD rats. Following a 12 h fast, the rats were administered 3d (30 mg/kg) via gavage or tail vein injection, respectively, and blood samples were collected within 24 h for analysis of 3d blood concentration via HPLC. The PK parameters were calculated using the DAS 3.0, and oral bioavailability (F) was obtained by the following formula.F = AUCpo × Di.v/AUCi.v × Dpo × 100%(1)

PPAR-related proteins = test: Western blotting of PPAR-related proteins in FFA-stimulated L02 cells; type: cell-based, human; conditions: Figure 6A
Experimental: as §1

C57BL/6J male mice = test: HFD-induced MASH model in mice: serum and liver biochemistry, body and liver weight, histology; type: in vivo
Experimental: All animal studies were conducted in accordance with national legislation and local guidelines at the Center for Laboratory Animals in Tianjin University of Science and Technology and approved by the Animal Ethics Committee of Tianjin University of Science and Technology (8 March 2022, Tianjin, China). The C57BL/6J male mice (6 weeks) were purchased from Henan Scribex Biotechnology Co, Ltd (Zhenzhou, China). Following a one-week period of acclimatization, the mice were fed a high-fat diet (HFD) comprising 60% fat (TP23300, Trophic Animal Feed High-Tech Co., Ltd., (Nantong, China)) and a low-fat control diet (TP23302, Trophic Animal Feed High-Tech Co., Ltd., (Nantong, China)) for 16 weeks.
After 16 weeks of continuous feeding on a high-fat diet, key indicators were tested to determine modeling success and drug administration was initiated. The mice were randomly divided into seven groups (n = 10) according to their body weight. The groups were as follows: control group (control diet, 0.5% CMC-Na), model group (HFD, 0.5% CMC-Na), positive control group (HFD, 100 mg/kg Fenofibrate), elafibranor group (HFD, 30 mg/kg), and 3d group (HFD, 3, 10, 30 mg/kg). The experiment was conducted over a period of eight weeks.
After fasting for 12 h, the mice were anaesthetized and blood samples were collected, as were the mice liver tissues. The ileal contents were collected and immediately frozen in liquid nitrogen and then transferred to storage at −80 °C. The blood samples were subjected to centrifugation at 3000 rpm/min for 10 min to obtain supernatant serum, which was stored at −80 °C. The liver tissues were weighed, and a portion of the liver was preserved in 4% paraformaldehyde for subsequent pathological sectioning, including staining with H&E, Masson, and Oil Red O. The remaining samples were stored at −80 °C for testing of various biochemical indices.
The serum levels of TG, total cholesterol (TC), low-density lipoprotein cholesterol (LDL-C), […] aminotransferase (AST), ALT, and TNF-α were determined according to the instructions of the kit. The levels of glutathione (GSH) and superoxide dismutase (SOD) were measured using liver tissue homogenates. The kits were purchased from the Nanjing Jiancheng Institute of Biological Engineering (Nanjing, China).

[3] = HFD mice liver, Western blot, Figure 7A
[4] = male, SD, rat, blood, po, 30 mg/kg, rats, administered orally
[5] = HFD mice, liver tissue homogenates
[6] = HFD-fed mice, 30 mg/kg, p < 0.05 vs. model

AUC(0-t) ([2]; SD rats, gavage, 30 mg/kg): 30,236 ng/L*min | AUC(0-∞) ([2]; SD rats, gavage, 30 mg/kg): 34,864 ng/L*min | AUMC(0-t) ([2]; SD rats, gavage, 30 mg/kg): 7,351,242 | AUMC(0-∞) ([2]; SD rats, gavage, 30 mg/kg): 12,023,223 | Cmax ([2]; SD rats, gavage, 30 mg/kg): 0.113 ng/mL | Cz ([2]; SD rats, gavage, 30 mg/kg): 15 ng/L | Tmax ([2]; SD rats, gavage, 30 mg/kg): 2 h | VRT(0-t) ([2]; SD rats, gavage, 30 mg/kg): 31,533 min^2 | VRT(0-∞) ([2]; SD rats, gavage, 30 mg/kg): 107,286 min^2 | Zeta ([2]; SD rats, gavage, 30 mg/kg): 0.003 min⁻¹ | Cmax ([2]; male, SD, rat, blood, po, 30 mg/kg, SD rats, gavage, 30 mg/kg, read-out: Cmax): 0.113 ng/mL | MRT last ([2]; male, SD, rat, blood, po, 30 mg/kg, SD rats, gavage, 30 mg/kg): 4.05 h | half-life [2, 4]: 3.4 h | MRT last [2, 4]: 4 h | Tmax ([2]; male, SD, rat, blood, po, 30 mg/kg, rats, administered orally, read-out: time of peak concentration): 2 h | bioavailability ([2]; male, SD, rat, blood, po, rats, 30 mg/kg gavage vs tail vein injection, read-out: oral bioavailability (F)): 27.9% | MRT inf ([2]; male, rat, blood, po, SD rats, gavage, 30 mg/kg, read-out: MRT(0-∞) (converted)): 5.73 h
Compound: CNc1ccc(C(=O)/C=C/c2cc(C)c(OC(C)(C)C(=O)OC(C)(C)C)c(C)c2)cc1 [3d]
activation of caspase 8 [1, 3]: reversed the activation | expression of the anti-apoptotic protein Bcl-2 [1, 3]: significantly up-regulated | degree of P38 phosphorylation ([1]; HFD mice liver, Western blot, Figure 7B): significantly reduced | upregulation of Acox1, EHHADH, Acaa1 ([1]; HFD mice liver, p < 0.001): 2.3–3.1 fold | decrease in caspase-8 ([1]; HFD mice liver, p < 0.01): 61% | increase in Bcl-2 ([1]; HFD mice liver, p < 0.01): 1.8 fold | reduction in p-p38 ([1]; HFD mice liver, p < 0.01): 54% | PPAR-related proteins (PPAR α, γ, δ, Acox1, EHHADH, Acaa1) in liver tissues ([1]; HFD mice, Western blot, Figure 6B): decreasing trend of PPAR-related proteins was significantly reversed | PPAR-related proteins in L02 cells (PPAR-related proteins): significantly increased | liver fibrosis (Masson staining) (C57BL/6J male mice; HFD mice): successfully reversed | liver steatosis and lipid accumulation (HE, Oil Red O sections) (C57BL/6J male mice; HFD mice): significantly reduce the steatosis and ballooning in the liver and bring it back to normal | serum TNF-α levels (C57BL/6J male mice; HFD mice): reversed and returned to normal levels | serum levels of LDL-C (C57BL/6J male mice; HFD mice): markedly diminish | body weight (C57BL/6J male mice; HFD mice, 8 weeks of treatment): no significant effect | serum TG levels (C57BL/6J male mice; HFD mice, 8 weeks, fenofibrate 100 mg/kg, elafibranor 30 mg/kg, 3d 3, 10, 30 mg/kg): decreased and returned to normal levels | liver GSH content (C57BL/6J male mice; [5]): counteracting the reduction | liver SOD content (C57BL/6J male mice; [5]): counteracting the reduction | TC levels (C57BL/6J male mice; HFD mice, 3d 3, 10, 30 mg/kg): dose-dependent reduction | serum ALT activity (C57BL/6J male mice; HFD mice, 3d 3, 10, 30 mg/kg): dose-dependent reduction | serum AST activity (C57BL/6J male mice; HFD mice, 3d 3, 10, 30 mg/kg): dose-dependent reduction | serum LDL-C decline (C57BL/6J male mice; [6]): 45% | serum TC reduction (C57BL/6J male mice; [6]): 32% | serum TG decrease (C57BL/6J male mice; [6]): 39% | serum TNF-α reduction (C57BL/6J male mice; [6]): 57%
